Assay [1] concerns the target T1, ARF1^WT (Δ17ARF1) (Homo sapiens, UniProt P84077).
T1 construct: N-terminally truncated (first 17 residues removed), His6-tag (pProEX HTb), E. coli BL21-CodonPlus (DE3)-RIPL
Kind of assay: protein thermal shift (SYPRO Orange); intact-protein and tandem MS. The format is binding. The note with it: […] protein, covalent at C159.

The target of assay [2] is T2, RNF130 (Homo sapiens, UniProt Q86XS8).
T2 construct: residues 1-304, C-terminal His8-Flag tag kept, expressed in Expi-293F
T2 sequence (Q86XS8 28-304 limits assumed): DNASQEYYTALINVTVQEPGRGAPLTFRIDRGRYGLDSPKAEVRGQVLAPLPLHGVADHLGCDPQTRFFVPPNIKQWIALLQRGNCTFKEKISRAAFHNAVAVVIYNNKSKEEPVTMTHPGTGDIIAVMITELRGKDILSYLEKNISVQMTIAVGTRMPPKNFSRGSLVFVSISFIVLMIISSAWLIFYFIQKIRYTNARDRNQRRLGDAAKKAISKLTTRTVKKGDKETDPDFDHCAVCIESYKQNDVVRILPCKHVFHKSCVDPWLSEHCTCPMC
Kind of assay: ITC. The format is binding. Particulars: […] RNF130 in cell, […] compound injected; N = […].

Assay [3] addresses T3, ARF1^WT (Δ17ARF1) (Homo sapiens, UniProt P84077, C159A).
T3 construct: N-terminally truncated (first 17 residues removed), His6-tag (pProEX HTb), E. coli BL21-CodonPlus (DE3)-RIPL
The assay can be described thus: protein thermal shift (SYPRO Orange). In kind it is binding. The note with it: no covalent adduct by mass spectrometry. From the text: protein thermal shift (SYPRO Orange) on ARF1^WT (Δ17ARF1) | PPIs with ARF1^C159A where C159 was mutated to alanine. No Tm shifts were observed

Assay [4] deals with T1, ARF1^WT (Δ17ARF1). Kind of assay: GDP/MANT-GTP nucleotide exchange, fluorescence. The format is biochemical. Particulars: exchange catalysed by […] human ARNO Sec7 ([…]-250).
Assay [5] deals with T4, SPOP^MATH (Homo sapiens, UniProt O43791).
T4 construct: MATH domain, residues 28-166; GST tag cut with PreScission protease; E. coli BL21-CodonPlus (DE3)-RIPL
Kind of assay: fluorescence polarization, displacement of FITC-puc_SBC1 peptide. In kind it is binding. Background: In fluorescence polarisation assays a small probe gives low polarisation when free and higher when bound to something large.

The structures appear in SMILES notation.

What is called Kd is the concentration at which binding is half-saturated. Usually IC50 stands for the concentration at which inhibition is half-maximal. Read a high IC50 as lower potency.

T1 sequence (P84077 18-181, stated change not applied): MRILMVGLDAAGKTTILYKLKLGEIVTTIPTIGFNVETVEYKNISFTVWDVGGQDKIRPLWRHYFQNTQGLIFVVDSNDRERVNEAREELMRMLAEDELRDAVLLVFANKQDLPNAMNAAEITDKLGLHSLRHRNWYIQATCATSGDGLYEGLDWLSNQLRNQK
T4 sequence (O43791 28-166): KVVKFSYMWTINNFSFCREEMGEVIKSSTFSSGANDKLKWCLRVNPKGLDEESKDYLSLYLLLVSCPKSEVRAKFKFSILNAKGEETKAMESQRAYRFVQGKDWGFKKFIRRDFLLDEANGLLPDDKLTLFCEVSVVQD
T3 sequence (P84077 18-181 C159A): as the sequence (P84077 18-181, stated change not applied) above, with C142A counted along it

Take `COc1ccc2[nH]c([S+]([O-])Cc3ncc(C)c(OC)c3C)nc2c1` (stereo not drawn) [omeprazole]: in assay [1] (no DTT), the Tm shift entry was “PPIs could bind directly to wild-type ARF1 (ARF1^WT) and destabilize the protein”. As for `Cc1c(OCC(F)(F)F)ccnc1C[S+]([O-])c1nc2ccccc2[nH]1` (stereo not drawn) [lansoprazole], the Tm shift entry in assay [1] (no DTT) was “PPIs could bind directly to wild-type ARF1 (ARF1^WT) and destabilize the protein”. `CS(=O)(=O)c1nnc(CN2C3C=C(c4ccccc4)CC2CC3)s1` (stereo not drawn) [iRNF130-63] had an equilibrium dissociation constant (Kd) in assay [2] of 1.23 µM. Consider `COCCCOc1ccnc(C[S+]([O-])c2nc3ccccc3[nH]2)c1C` (stereo not drawn) [rabeprazole], for which the Tm shift result in assay [1] (no DTT; […] compound) is “PPIs could bind directly to wild-type ARF1 (ARF1^WT) and destabilize the protein”; in assay [3], “PPIs with ARF1^C159A where C159 was mutated to alanine. No Tm shifts were observed”. Further, in assay [4], the “GDP/MANT-GTP nucleotide exchange, fluorescence” value is reported as “rabeprazole suppressed the nucleotide exchange process in a concentration-dependent manner”. Take `Cc1nnc(SCC2=C(C(=O)O)N3C(=O)C(NC(=O)c4ccc(COc5ccccc5Cl)o4)C3SC2)s1` (stereo not drawn) [221C7]: the 50% inhibitory concentration (IC50) in assay [5] came out at 4.51 µM.

Consider `COc1ccnc(C[S+]([O-])c2nc3cc(OC(F)F)ccc3[nH]2)c1OC` (stereo not drawn) [pantoprazole], for which the Tm shift result in assay [1] (no DTT) was “PPIs could bind directly to wild-type ARF1 (ARF1^WT) and destabilize the protein”. `C=CC1=C(C(=O)O)N2C(=O)[C@@H](NC(=O)CCC3CCCC3)[C@H]2SC1` [222A5, (6R,7R)−7-(3-cyclopentylpropanamido)−8-oxo-3-vinyl-5-thia-1-azabicyclo[4.2.0]oct-2-ene-2-carboxylic acid]: the half-inhibitory concentration (IC50) in assay [5] is over 100 µM.

The record behind these values is paper PMC10349078, “Sequence-based drug design as a concept in computational drug design” (Nature Communications, 2023).
